# Measured values published in patent publication US11584747B2, “Substituted pyridopyrimidinonyl compounds useful as T cell activators” (BRISTOL-MYERS SQUIBB COMPANY, priority 2019, dated 2023).
# Read-outs that look alike come from different tables or passages of the source.
# How the values were obtained:
# human DGKζ = human DGKζ (Homo sapiens (Human), UniProt Q13574); test: DGKζ LIPGLO assay (extruded liposome substrate, ADP-Glo luminescence); format: biochemical
# human DGKα = human DGKα (Homo sapiens (Human), UniProt P23743); test: DGKα ADPGLO assay (detergent/lipid micelle substrate); format: biochemical
# Chain of human DGKα (P23743 whole entry, looked up, the tested form may be a part): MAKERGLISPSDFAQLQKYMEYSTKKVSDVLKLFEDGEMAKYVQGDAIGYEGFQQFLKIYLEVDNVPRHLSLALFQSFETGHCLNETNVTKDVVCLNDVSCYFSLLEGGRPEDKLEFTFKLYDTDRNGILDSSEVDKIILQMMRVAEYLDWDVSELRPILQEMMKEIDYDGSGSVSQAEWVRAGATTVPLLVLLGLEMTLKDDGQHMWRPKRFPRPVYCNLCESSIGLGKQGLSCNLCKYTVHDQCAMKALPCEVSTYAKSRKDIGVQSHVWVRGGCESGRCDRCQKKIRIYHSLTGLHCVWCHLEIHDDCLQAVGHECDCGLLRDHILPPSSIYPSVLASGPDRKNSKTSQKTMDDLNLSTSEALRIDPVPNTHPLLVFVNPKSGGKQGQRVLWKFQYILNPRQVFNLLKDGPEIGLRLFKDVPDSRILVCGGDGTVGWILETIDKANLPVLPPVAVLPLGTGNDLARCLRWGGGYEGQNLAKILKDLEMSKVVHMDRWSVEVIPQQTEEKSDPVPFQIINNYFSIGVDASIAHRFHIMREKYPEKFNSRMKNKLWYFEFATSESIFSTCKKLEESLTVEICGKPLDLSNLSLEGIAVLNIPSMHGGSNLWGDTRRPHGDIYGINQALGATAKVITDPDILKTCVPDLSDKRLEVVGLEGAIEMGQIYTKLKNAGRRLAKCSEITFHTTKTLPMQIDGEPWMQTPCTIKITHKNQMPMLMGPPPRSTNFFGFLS
# Procedure: DGK Alpha ADPGLO (Truncated) IC50 (uM)
# The detergent/lipid micelle was prepared by combining 15 g phosphatidylserine (Avanti 840035P) and 1 g diacylglycerol (8008110) and dissolving into 150 mL chloroform in a 2 L round bottom flask. Chloroform was removed under high vacuum by rotary evaporation. […] The lipid/detergent solution was split into 5 mL aliquots and stored at −80° C.
# [1] = tested on: human venous whole blood (IFN-γ); test: Human whole blood IFN-γ assay; format: cell-based
# Procedure: Human venous whole blood (22.5 μL per well), obtained from healthy donors, was pre-treated with compounds for one hour at 37° C. in a humidified 95% air/5% CO2 incubator. The blood was stimulated with 2.5 μL anti-human CD3 and anti-CD28 mAb at a final concentration of 1 μg/mL each for 24 hours at 37° C. IFN-γ in the supernatants was measured using AlphLISA kit (Cat #AL217).
# [2] = liposome (LIPGLO) assay, read-out: DGK zeta (liposome assay) IC50
# [3] = ADPGLO assay, read-out: DGK alpha ADPGLO IC50
# [4] = Homo sapiens, 24 h, human whole blood, anti-CD3 plus anti-CD28 stimulation, 24 hours, read-out: IFN-γ Whole Blood EC50
# [5] = liposome assay, read-out: DGK zeta LIPGLO IC50
# [6] = truncated DGK alpha, read-out: DGK alpha ADPGLO (Truncated) IC50
# [7] = whole blood, normalized to 3 μM reference compound as 100% activation, read-out: IFN-γ Whole Blood Normalized EC50
# [8] = human whole blood, anti-CD3 plus anti-CD28 stimulation, 24 hours, read-out: IFN-γ Whole Blood EC50
# [9] = Homo sapiens, whole blood, normalized to 3 μM reference compound as 100% activation, read-out: IFN-γ Whole Blood Normalized EC50
# Chain of human DGKζ (Q13574 other isoform, or with tags, fused parts or gaps): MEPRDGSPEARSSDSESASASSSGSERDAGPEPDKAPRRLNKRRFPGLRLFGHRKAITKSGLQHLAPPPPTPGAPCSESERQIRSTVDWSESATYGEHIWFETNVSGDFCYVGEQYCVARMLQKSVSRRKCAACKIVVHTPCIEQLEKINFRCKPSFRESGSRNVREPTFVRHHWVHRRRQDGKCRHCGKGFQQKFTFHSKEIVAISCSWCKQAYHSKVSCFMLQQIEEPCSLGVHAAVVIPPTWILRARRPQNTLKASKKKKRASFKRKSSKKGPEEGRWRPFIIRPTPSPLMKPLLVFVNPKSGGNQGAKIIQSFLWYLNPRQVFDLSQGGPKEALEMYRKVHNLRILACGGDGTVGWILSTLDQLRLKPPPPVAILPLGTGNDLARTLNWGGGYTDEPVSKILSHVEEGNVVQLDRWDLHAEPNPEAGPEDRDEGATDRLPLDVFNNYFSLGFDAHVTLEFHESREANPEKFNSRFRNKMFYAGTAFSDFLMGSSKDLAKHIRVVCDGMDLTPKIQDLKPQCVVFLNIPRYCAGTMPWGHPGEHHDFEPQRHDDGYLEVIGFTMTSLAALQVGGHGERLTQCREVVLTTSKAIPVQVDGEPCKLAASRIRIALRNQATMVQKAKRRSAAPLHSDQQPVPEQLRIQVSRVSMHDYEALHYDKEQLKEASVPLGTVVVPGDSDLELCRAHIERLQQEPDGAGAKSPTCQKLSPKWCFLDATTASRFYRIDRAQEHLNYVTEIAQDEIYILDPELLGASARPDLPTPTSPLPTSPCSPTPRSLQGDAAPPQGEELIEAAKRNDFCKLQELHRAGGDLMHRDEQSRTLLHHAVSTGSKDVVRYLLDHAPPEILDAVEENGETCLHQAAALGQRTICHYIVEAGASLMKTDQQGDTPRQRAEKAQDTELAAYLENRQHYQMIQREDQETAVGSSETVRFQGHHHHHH
SMILES,IC50 (human DGKζ; [2]) [nM],IC50 (human DGKα; [3]) [nM],"EC50 [1, 4] [nM]",IC50 (human DGKζ; [5]) [nM],IC50 (human DGKα; [6]) [nM],"EC50 [1, 7] [nM]","EC50 [1, 8] [nM]","EC50 [1, 9] [nM]"
"CCC(c1ccc(C(F)(F)F)cc1)N1C[C@H](CC)N(c2nc(=O)n(C)c3ccc(Cl)nc23)C[C@H]1CC (single isomer, unassigned) [Example 421]",320,64,190,,,,,
"CC[C@@H]1CN(c2nc(=O)n(C)c3ccc(C#N)nc23)[C@@H](C)CN1C(C)c1ccc2oc(=O)n(C)c2c1 (stereo partly drawn) [Example 298, 4-((2S,5R)-5-ethyl-2-methyl-4-(1-(3-methyl-2-oxo-2,3-dihydrobenzo[d]oxazol-5-yl)ethyl)piperazin-1-yl)-1-methyl-2-oxo-1,2-dihydropyrido[3,2-d]pyrimidine-6-carbonitrile]",,,,380,480,420,,
"CC[C@H]1CN(C(C)c2ccc(C(=O)OC)cc2)[C@H](CC)CN1c1nc(=O)n(C)c2ccc(C#N)nc12 (stereo partly drawn) [Example 265, methyl 4-(1-((2R,5S)-4-(6-cyano-1-methyl-2-oxo-1,2-dihydropyrido[3,2-d]pyrimidin-4-yl)-2,5-diethylpiperazin-1-yl)ethyl)benzoate]",,,,370,790,1590,,
"CC(c1ccc(CN2C[C@@H]3C[C@H]2CO3)cc1)N1C[C@H](C)N(c2nc(=O)n(C)c3ccc(C#N)nc23)C[C@H]1C (stereo partly drawn) [Example 388, 4-((2S,5R)-4-(1-(4-(((1S,4S)-2-oxa-5-azabicyclo[2.2.1]heptan-5-yl)methyl)phenyl)ethyl)-2,5-dimethylpiperazin-1-yl)-1-methyl-2-oxo-1,2-dihydropyrido[3,2-d]pyrimidine-6-carbonitrile]",45700,1750,,,,,20000,
"CC[C@H]1CN(C(C)c2ccc(C(F)(F)F)cc2)[C@H](CC)CN1c1nc(=O)n(C)c2ccc(OCCOC)nc12 (stereo partly drawn) [Example 433, 4-((2S,5R)-2,5-diethyl-4-(1-(4-(trifluoromethyl)phenyl)ethyl)piperazin-1-yl)-6-(2-methoxyethoxy)-1-methylpyrido[3,2-d]pyrimidin-2(1H)-one]",125000,125000,20000,,,,,
"CC[C@H]1CN(C(C)c2cnc(N3CCOCC3)nc2)[C@H](CC)CN1c1nc(=O)n(C)c2ccc(C#N)nc12 (stereo partly drawn) [Example 207, 4-((2S,5R)-2,5-diethyl-4-(1-(2-morpholinopyrimidin-5-yl)ethyl)piperazin-1-yl)-1-methyl-2-oxo-1,2-dihydropyrido[3,2-d] pyrimidine-6-carbonitrile]",,,,970,620,1060,,
"CC[C@H]1CN(C(C)c2ccc(CN3CCOC(C)(C)C3)cc2)[C@H](CC)CN1c1nc(=O)n(C)c2ccc(C#N)nc12 (stereo partly drawn) [Example 275, 4-((2S,5R)-4-(1-(4-((2,2-dimethylmorpholino)methyl)phenyl)ethyl)-2,5-diethylpiperazin-1-yl)-1-methyl-2-oxo-1,2-dihydropyrido[3,2-d]pyrimidine-6-carbonitrile]",,,,150,530,35,,
"CC[C@@H]1CN(c2nc(=O)n(C)c3ccc(C#N)nc23)[C@@H](CC)CN1Cc1ccc(C(F)(F)F)cc1 [Example 205, 4-((2S,5R)-2,5-diethyl-4-(4-(trifluoromethyl)benzyl)piperazin-1-yl)-1-methyl-2-oxo-1,2-dihydropyrido[3,2-d] pyrimidine-6-carbonitrile]",,,,3740,61,,,830
"CC[C@H]1CN(C(C)c2ccc(CO)cc2)[C@H](CC)CN1c1nc(=O)n(C)c2ccc(C#N)nc12 (stereo partly drawn) [Example 271, 4-((2S,5R)-2,5-Diethyl-4-(1-(4-(hydroxymethyl)phenyl)ethyl)piperazin-1-yl)-1-methyl-2-oxo-1,2-dihydropyrido[3,2-d]pyrimidine-6-carbonitrile]",,,,12700,10,14400,,
"CC[C@H]1CN(C(C)c2ccc(CO)cc2)[C@H](CC)CN1c1nc(=O)n(C)c2ccc(C#N)nc12 (stereo partly drawn) [Example 270, 4-((2S,5R)-2,5-Diethyl-4-(1-(4-(hydroxymethyl)phenyl)ethyl)piperazin-1-yl)-1-methyl-2-oxo-1,2-dihydropyrido[3,2-d]pyrimidine-6-carbonitrile]",,,,2320,8,1390,,
"CCC(c1ccc(C(F)(F)F)cc1)N1C[C@H](CC)N(c2nc(=O)n(C)c3ccc(OC)nc23)C[C@H]1CC (stereo partly drawn) [Example 436, 4-((2S,5R)-2,5-diethyl-4-(1-(4-(trifluoromethyl)phenyl)propyl)piperazin-1-yl)-6-methoxy-1-methylpyrido[3,2-d]pyrimidin-2(1H)-one]",250000,12200,,,,,20000,
"CCC(c1ccc(OC)cc1)N1C[C@H](CC)N(c2nc(=O)n(C)c3ccc(C#N)nc23)C[C@H]1CC (stereo partly drawn) [Example 213, 4-((2S,5R)-2,5-diethyl-4-(1-(4-methoxyphenyl)propyl)piperazin-1-yl)-1-methyl-2-oxo-1,2-dihydropyrido[3,2-d]pyrimidine-6-carbonitrile]",,,,950,59,190,,
"CCC(c1ccc(OCC2CC2)cc1)N1C[C@H](CC)N(c2nc(=O)n(C)c3ccc(C#N)nc23)C[C@H]1CC (stereo partly drawn) [Example 217, 4-((2S,5R)-4-(1-(4-(cyclopropylmethoxy)phenyl)propyl)-2,5-diethylpiperazin-1-yl)-1-methyl-2-oxo-1,2-dihydropyrido[3,2-d]pyrimidine-6-carbonitrile]",,,,4260,1660,870,,
"CC(c1ccc(CN2CCOC(C)(C)C2)cc1)N1C[C@H](C)N(c2nc(=O)n(C)c3ccc(C#N)nc23)C[C@H]1C (single isomer, unassigned) [Example 386]",5070,2700,,,,,2490,
"CC[C@H]1CN(C(C)c2ccc(C3CC3)nc2)[C@H](CC)CN1c1nc(=O)n(C)c2ccc(C#N)nc12 (stereo partly drawn) [Example 193, 4-((2 S,5R)-4-(1-(6-cyclopropylpyridin-3-yl)ethyl)-2,5-diethylpiperazin-1-yl)-1-methyl-2-oxo-1,2-dihydropyrido[3,2-d]pyrimidine-6-carbonitrile]",,,,1770,650,1150,,
"CC[C@H]1CN(C(C)c2cnc(C(F)(F)F)nc2)[C@H](CC)CN1c1nc(=O)n(C)c2ccc(C#N)nc12 (stereo partly drawn) [Example 226, 4-((2S,5R)-2,5-diethyl-4-(1-(2-(trifluoromethyl)pyrimidin-5-yl)ethyl)piperazin-1-yl)-1-methyl-2-oxo-1,2-dihydropyrido[3,2-d]pyrimidine-6-carbonitrile]",,,,2650,1210,5600,,
"CC[C@H]1CN(C(c2ccc(F)cc2)c2csc(C(F)(F)F)n2)[C@H](CC)CN1c1nc(=O)n(C)c2ccc(C#N)nc12 (stereo partly drawn) [Example 210, 4-((2S,5R)-2,5-diethyl-4((4-fluorophenyl)(2-(trifluoromethyl)thiazol-4-yl)methyl)piperazin-1-yl)-1-methyl-2-oxo-1,2-dihydropyrido[3,2-d]pyrimidine-6-carbonitrile]",,,,970,46,,,31
"CCC(c1ccc(OC(F)F)cc1F)N1C[C@H](CC)N(c2nc(=O)n(C)c3ccc(C#N)nc23)C[C@H]1CC (stereo partly drawn) [Example 233, 4-((2S,5R)-4-(1-(4-(difluoromethoxy)-2-fluorophenyl)propyl)-2,5-diethylpiperazin-1-yl)-1-methyl-2-oxo-1,2-dihydropyrido[3,2-d]pyrimidine-6-carbonitrile]",,,,950,170,2770,,
"[2H]C([2H])([2H])Oc1ccc(C(CC)N2C[C@H](CC)N(c3nc(=O)n(C)c4ccc(C#N)nc34)C[C@H]2CC)cc1 (single isomer, unassigned) [Example 208]",,,,78,25,17,,
"CC[C@H]1CN(C(c2ccc(F)cc2)c2csc(C(F)(F)F)n2)[C@H](CC)CN1c1nc(=O)n(C)c2ccc(C#N)nc12 (stereo partly drawn) [Example 211, 4-((2S,5R)-2,5-diethyl-4((4-fluorophenyl)(2-(trifluoromethyl)thiazol-4-yl)methyl)piperazin-1-yl)-1-methyl-2-oxo-1,2-dihydropyrido[3,2-d]pyrimidine-6-carbonitrile]",,,,100,46,18,,
"CC[C@H]1CN(C(C)c2ccc(CN3CCOC(C)(C)C3)cc2)[C@H](CC)CN1c1nc(=O)n(C)c2ccc(C#N)nc12 (stereo partly drawn) [Example 276, 4-((2S,5R)-4-(1-(4-((2,2-dimethylmorpholino)methyl)phenyl)ethyl)-2,5-diethylpiperazin-1-yl)-1-methyl-2-oxo-1,2-dihydropyrido[3,2-d]pyrimidine-6-carbonitrile]",,,,1380,120,3560,,
"CC[C@@H]1CN(c2nc(=O)n(C)c3ccc(C#N)nc23)[C@@H](C)CN1C(C)c1ccc2oc(=O)n(C)c2c1 (stereo partly drawn) [Example 299, 4-((2S,5R)-5-ethyl-2-methyl-4-(1-(3-methyl-2-oxo-2,3-dihydrobenzo[d]oxazol-5-yl)ethyl)piperazin-1-yl)-1-methyl-2-oxo-1,2-dihydropyrido[3,2-d]pyrimidine-6-carbonitrile]",,,,4680,1280,3460,,
